Test systems include HCT-15 colon; T-47D breast; UACC-62 melanoma; SR leukemia; A549 NSCLC; TK-10 renal; HS 578T breast; 786-0 renal; XF 498 CNS; LXFL 529 NSCLC; DMS 273 small cell lung; SNB-78 CNS; KM20L2 colon.
Common to all, as to test: DTP human tumour cell line panel, 48 h

Structures are written as SMILES.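 Growth conditions: 96-well plates. Treatment: test compound, 48 hours, 5 concentrations. Analysis: linear interpolation between bracketing concentrations; unreached endpoints set to highest concentration. GI50: concentration for 50% inhibition of growth. TGI: concentration producing complete growth inhibition.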

By TGI is commonly meant the concentration at which net growth stops. Low values mean more potent growth arrest, high ones less potent growth arrest. With `CC(C)(C)OC(=O)NCC(=O)NC1C/C(=N\O)c2sccc21` (stereo unspecified), the concentration for total growth inhibition (TGI) in the test with HCT-15 colon, in the test with T-47D breast, in the test on UACC-62 melanoma, with SR leukemia, in the test with A549 NSCLC and in the test with TK-10 renal was over 100 µM in each case. Also, the TGI in the test with HS 578T breast is over 100 µM.
Consider `CC(=O)c1ccc(N2CCN(C3=CC(=O)c4c(O)ccc(O)c4C3=O)CC2)cc1`, for which the TGI was 55.6 µM in the test on HCT-15 colon; over 100 µM with 786-0 renal; over 100 µM in the test with T-47D breast; over 100 µM in the test on UACC-62 melanoma; over 100 µM in the test with SR leukemia; over 100 µM with A549 NSCLC. The same compound returned a TGI in the test on TK-10 renal of over 100 µM.
Regarding `COc1ccc2c(c1)CC1Cc3ccccc3CCN1C2` (stereo unspecified), the TGI in the test with HCT-15 colon, in the test on T-47D breast, in the test with UACC-62 melanoma, in the test with SR leukemia, in the test on A549 NSCLC and with TK-10 renal was over 100 µM each time. Besides, in the test with HS 578T breast, the TGI is over 100 µM.
As for `CCNc1ncnc2c1nnn2CC`, the TGI with HCT-15 colon, in the test on 786-0 renal, with T-47D breast, in the test on UACC-62 melanoma, in the test with A549 NSCLC and in the test with TK-10 renal was over 100 µM throughout.
Turning to `CN(/N=N/c1nc[nH]c1C(N)=O)C1CCCCC1`, the concentration for total growth inhibition (TGI) in the test on XF 498 CNS, with HCT-15 colon, in the test with LXFL 529 NSCLC, in the test on DMS 273 small cell lung, with UACC-62 melanoma and in the test on SR leukemia was over 100 µM each time. The concentration for total growth inhibition (TGI) with A549 NSCLC, in the test on TK-10 renal, in the test with SNB-78 CNS and in the test on KM20L2 colon was over 100 µM each time.
As for `CNC(=S)N/N=C(\C)c1nc2ncccc2[nH]1`, the total growth inhibition concentration (TGI) was over 100 µM in the test with HCT-15 colon; over 100 µM in the test with 786-0 renal; over 100 µM with T-47D breast; over 100 µM with SR leukemia; over 100 µM in the test on A549 NSCLC; over 96.1 µM in the test with TK-10 renal. The compound also came in with a TGI in the test on HS 578T breast of over 84.3 µM.
Consider `CCC(=O)NC(OCC1(CC)COC1)(C(F)(F)F)C(F)(F)F`, for which the TGI with HCT-15 colon, with T-47D breast, with UACC-62 melanoma, in the test on SR leukemia, with TK-10 renal and in the test on HS 578T breast was over 100 µM in each case.
Take `COc1ccc2c(c1OC)C(=O)O[C@@H]2[C@H]1c2cc3c(cc2CCN1C)OCO3`: the concentration for total growth inhibition (TGI) in the test on HCT-15 colon, in the test with 786-0 renal, in the test with T-47D breast, in the test on UACC-62 melanoma, in the test with SR leukemia and with A549 NSCLC was over 100 µM throughout. The concentration for total growth inhibition (TGI) in the test on TK-10 renal and in the test with HS 578T breast was over 100 µM in each case.
In the case of `COC(=O)C1=C(C)N(NC(=O)c2ccccc2)C2(O)CCCC(=O)C12C` (stereo unspecified), the concentration for total growth inhibition (TGI) in the test on XF 498 CNS, with HCT-15 colon, in the test on LXFL 529 NSCLC, in the test on DMS 273 small cell lung, in the test with UACC-62 melanoma and with A549 NSCLC was over 100 µM in each case. Moreover, the TGI in the test with TK-10 renal, in the test with SNB-78 CNS and in the test on KM20L2 colon was over 100 µM each time.
For orientation: GI50 means the concentration that inhibits growth by half. In the case of `COc1cc(OC)cc(-c2n/c(=C\c3c(O)[nH]c4ccc(Cl)cc34)cc3c2=Nc2ccccc2-3)c1`, the GI50 in the test on HCT-15 colon is 6.58 µM; in the test with T-47D breast it was 4.39 µM; in the test on UACC-62 melanoma it was 16.9 µM; in the test on SR leukemia, 2.24 µM; with A549 NSCLC, 3.21 µM; in the test with TK-10 renal it was 3.79 µM. The GI50 in the test with HS 578T breast was 16.4 µM. Further, the total growth inhibition concentration (TGI) in the test with HCT-15 colon came to 27.7 µM; in the test on T-47D breast it was 17 µM; with UACC-62 melanoma it was 35.2 µM; in the test on SR leukemia it was 5.59 µM; in the test with A549 NSCLC, 11.1 µM; in the test on TK-10 renal it was 8.96 µM. The same compound had a total growth inhibition concentration (TGI) in the test on HS 578T breast of 62.4 µM.
As to `C=CCC1(CC)C(=O)NC(=O)NC1=O`, the TGI in the test with HCT-15 colon, in the test with 786-0 renal, in the test with LXFL 529 NSCLC, in the test on DMS 273 small cell lung, with UACC-62 melanoma and with SR leukemia was over 100 µM each time. Also, the TGI with A549 NSCLC, with TK-10 renal, with SNB-78 CNS and in the test with KM20L2 colon was over 100 µM each time.
